# Data from article PMC4284639, “The Escherichia coli effector EspJ blocks Src kinase activity via amidation and ADP ribosylation” (Nature Communications, 2014).
# Target: T1, EspJ28-217 (Escherichia coli, UniProt B7ULW8)
# T1 construct: gene E2348C_0723; residues 28-217, lacking N-terminal secretion signal; 15N-labelled for NMR
# Assay: 1H-15N HSQC NMR titration
# Format: binding
# Conditions: 0.25 mM 15N-labelled protein, 1 or 10 molar equivalents of NAD+; 50 mM NaPO4 pH 7.4, 200 mM NaCl, 5 mM beta-mercaptoethanol, 10% D2O, 295 K; also ADP-ribose donor with GST-Src (150 uM NAD+ and labelle)
# T1 sequence (B7ULW8 entry or part of it): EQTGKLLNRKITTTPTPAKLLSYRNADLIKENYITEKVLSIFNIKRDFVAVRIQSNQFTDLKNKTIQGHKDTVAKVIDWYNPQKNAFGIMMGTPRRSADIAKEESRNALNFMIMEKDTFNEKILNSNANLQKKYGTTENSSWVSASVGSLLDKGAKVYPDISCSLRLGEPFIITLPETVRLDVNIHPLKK
smiles,measurement,value
NC(=O)c1ccc[n+]([C@@H]2O[C@H](COP(=O)(O)OP(=O)(O)OC[C@H]3O[C@@H](n4cnc5c(N)ncnc54)[C@H](O)[C@@H]3O)[C@@H](O)[C@H]2O)c1 [NAD^+],chemical shift perturbation,The addition of NAD^+ caused substantial chemical shift perturbations for several resonances
